target: T1, full length active recombinant SYK enzyme (Homo sapiens, UniProt P43405); assay: Inhibition of Syk tyrosine phosphorylation activity (LANCE TR-FRET kinase assay); type: biochemical; conditions: 1 nM active SYK enzyme, 550 nM SYK-substrate, 100 μM ATP, 1 hour at room temperature
T1 construct: full length active recombinant SYK enzyme (Millipore, Calif.); purchased Millipore
Description: The in vitro and in vivo human Syk activities of the inventive compounds can be determined by various procedures known in the art, such as a test for their ability to inhibit the activity of human plasma Syk.
Inhibition of Syk Tyrosine Phosphorylation Activity
SYK tyrosine phosphorylation activity is measured using the LANCE™ Technology developed by Perkin Elmer Life and Analytical Sciences (Boston, Mass.). LANCE™ refers to homogeneous time resolved fluorometry applications using techniques such as time-resolved fluorescence resonance energy transfer assay (TR-FRET) (see generally for procedures in Perkin Elmer Application Note—How to Optimize a Tyrosine Kinase Assay Using Time Resolved Fluorescence-Based LANCE Detection, wwww.perkinelmer.com/lifesciences). The assay principle involves detection of a phosphorylated substrate using energy transfer from a phosphospecific europium-labeled antibody to streptavidin-allophycocyanin as an acceptor.
Molecules are reconstituted in 30% DMSO and serially diluted 1:3 with the final dilution containing DMSO in the absence of the candidate molecule. The final DMSO concentration in the assay is 3%. Kinase assays are performed as a two part reaction. […] The second reaction involves termination of the kinase reaction and the simultaneous addition of the detection reagents-europium-labeled anti-phosphotyrosine reagent (Eu-W1024-PY100, Perkin Elmer, Boston, Mass.) and Streptavidin-Allophycocyanin detection reagent (SA-APC, Prozyme, CA). The kinase reaction is performed in a black U-bottom 96-well microtitre plate. […] The reaction is allowed to proceed for 1 hour at room temperature. The quench buffer contains 100 mM Tris pH 7.5, 300 mM […], 20 mM EDTA, 0.02% Brij35, and 0.5% BSA. The detection reagents are added to the reaction mixture at the following dilutions-1:500 for Eu-W1024-PY100 and 1:250 for SA-APC. The kinase reaction is terminated by the addition of 50 μL quench buffer containing the detection reagents. The detection is allowed to proceed for 1 hr at room temperature. Detection of the phosphorlated substrate in the absence and presence of inhibitors is measured in the TR-FRET instrument, Analyst HT (Molecular Probes, Sunnyvale, Calif.) and the condition for measurements are set up using CriterionHost Release 2.0 (Molecular Probes, Sunnyvale, Calif.). […] IC50s were derived by non-linear regression analysis.

Structure (SMILES)	IC50 [µM]
Cn1ncc2c(Nc3nc(N[C@@H]4CCCC(F)(F)[C@@H]4N)nnc3C(N)=O)cccc21 [Example 117, 3-(((1R,2R)-2-amino-3,3-difluorocyclohexyl)amino)-5-((1-methyl-1H-indazol-4-yl)amino)-1,2,4-triazine-6-carboxamide]	0.01 to 0.1
COC[C@@H](Nc1nnc(C(N)=O)c(Nc2ccc(C)cc2)n1)C(N)=O [Example 187, (R)-3-(1-amino-3-methoxy-1-oxopropan-2-ylamino)-5-(p-tolylamino)-1,2,4-triazine-6-carboxamide]	0.1 to 1
NC(=O)c1nnc(N[C@@H]2CCCC(F)(F)[C@@H]2N)nc1Nc1ccccc1 [Example 96, 3-(((1R,2R)-2-amino-3,3-difluorocyclohexyl)amino)-5-(phenylamino)-1,2,4-triazine-6-carboxamide]	0.01 to 0.1
NC(=O)c1nnc(N[C@@H]2CCCC[C@@H]2N)nc1Nc1ccc([N+]2([O-])CCCCC2)c(F)c1 [Example 32, 1-(4-((3-(((1R,2S)-2-aminocyclohexyl)amino)-6-carbamoyl-1,2,4-triazin-5-yl)amino)-2-fluorophenyl)piperidine 1-oxide]	0.01 to 0.1
NC(=O)c1nnc(N[C@@H]2CCCC[C@@H]2N)nc1Nc1cnc2ncccc2c1 [Example 45, 5-((1,8-naphthyridin-3-yl)amino)-3-(((1R,2S)-2-aminocyclohexyl)amino)-1,2,4-triazine-6-carboxamide]	0.01 to 0.1
Cc1ccc(Nc2nc(N[C@@H]3CCCC(F)(F)[C@@H]3N)nnc2C(N)=O)cc1C [Example 204, 3-(((1R,2R)-2-amino-3,3-difluorocyclohexyl)amino)-5-((3,4-dimethylphenyl)amino)-1,2,4-triazine-6-carboxamide]	0.01 to 0.1
CC[C@@H](Nc1nnc(C(N)=O)c(Nc2ccc(C)c(Cl)c2)n1)C(N)=O [Example 222, (R)-3-((1-amino-1-oxobutan-2-yl)amino)-5-((3-chloro-4-methylphenyl)amino)-1,2,4-triazine-6-carboxamide]	0.01 to 0.1
Cc1ccc(Nc2nc(N[C@@H]3CCCC(F)(F)[C@@H]3N)nnc2C(N)=O)cc1C#N [Example 233, 3-(((1R,2R)-2-amino-3,3-difluorocyclohexyl)amino)-5-((3-cyano-4-methylphenyl)amino)-1,2,4-triazine-6-carboxamide]	0.1 to 1
NC(=O)c1nnc(N[C@@H]2CCOC[C@@H]2N)nc1Nc1cccc(-c2ncccn2)c1 [Example 71, 3-(((3R,4R)-3-aminotetrahydro-2H-pyran-4-yl)amino)-5-((3-(pyrimidin-2-yl)phenyl)amino)-1,2,4-triazine-6-carboxamide]	0.01 to 0.1
Cc1ccc(Nc2nc(N[C@H](CC(F)(F)F)C(N)=O)nnc2C(N)=O)cc1 [Example 144, (R)-3-((1-amino-4,4,4-trifluoro-1-oxobutan-2-yl)amino)-5-(p-tolylamino)-1,2,4-triazine-6-carboxamide]	0.01 to 0.1
CC(C)C[C@@H](Nc1nnc(C(N)=O)c(Nc2ccc(Cl)cc2)n1)C(N)=O [Example 248, (R)-3-((1-amino-4-methyl-1-oxopentan-2-yl)amino)-5-((4-chlorophenyl)amino)-1,2,4-triazine-6-carboxamide]	0.01 to 0.1
CC[C@@H](Nc1nnc(C(N)=O)c(Nc2ccc(N3CCOCC3)c(F)c2)n1)C(N)=O [Example 31, (R)-3-((1-amino-1-oxobutan-2-yl)amino)-5-((3-fluoro-4-morpholinophenyl)amino)-1,2,4-triazine-6-carboxamide]	0.01 to 0.1
CC[C@@H](Nc1nnc(C(N)=O)c(Nc2ccc(C)c(OC)c2)n1)C(N)=O [Example 231, (R)-3-((1-amino-1-oxobutan-2-yl)amino)-5-((3-methoxy-4-methylphenyl)amino)-1,2,4-triazine-6-carboxamide]	0.01 to 0.1
NC(=O)c1nnc(N[C@@H]2CCCC[C@@H]2N)nc1Nc1cccc(OC(F)F)c1 [Example 124, 3-(((1R,2S)-2-aminocyclohexyl)amino)-5-((3-(difluoromethoxy)phenyl)amino)-1,2,4-triazine-6-carboxamide]	0.001 to 0.01
NC(=O)c1nnc(N[C@@H]2CCCC[C@@H]2N)nc1Nc1ccc2c(ccc[n+]2[O-])c1 [Example 48, 6-((3-(((1R,2S)-2-aminocyclohexyl)amino)-6-carbamoyl-1,2,4-triazin-5-yl)amino)quinoline 1-oxide]	0.01 to 0.1
CC(C)C[C@@H](Nc1nnc(C(N)=O)c(Nc2cccc(-n3nccn3)c2)n1)C(N)=O [Example 83, (R)-5-((3-(2H-1,2,3-triazol-2-yl)phenyl)amino)-3-((1-amino-4-methyl-1-oxopentan-2-yl)amino)-1,2,4-triazine-6-carboxamide]	0.01 to 0.1
CC[C@@H](Nc1nnc(C(N)=O)c(Nc2ccc3cn[nH]c3c2)n1)C(N)=O [Example 128, (R)-5-((1H-indazol-6-yl)amino)-3-((1-amino-1-oxobutan-2-yl)amino)-1,2,4-triazine-6-carboxamide]	0.001 to 0.01
Cn1ccc2c(Nc3nc(N[C@@H]4CCCC(F)(F)[C@@H]4N)nnc3C(N)=O)cccc21 [Example 94, 3-(((1R,2R)-2-amino-3,3-difluorocyclohexyl)amino)-5-((1-methyl-1H-indol-4-yl)amino)-1,2,4-triazine-6-carboxamide]	0.001 to 0.01
Cn1ccc2ccc(Nc3nc(N[C@@H]4CCOC[C@@H]4N)nnc3C(N)=O)cc21 [Example 165, 3-(((3R,4R)-3-aminotetrahydro-2H-pyran-4-yl)amino)-5-((1-methyl-1H-indol-6-yl)amino)-1,2,4-triazine-6-carboxamide]	0.001 to 0.01

Now from value to molecule:

IC50 [µM]	Structure (SMILES)
0.001 to 0.01	NC(=O)c1nnc(N[C@@H]2CCCC[C@@H]2N)nc1Nc1cccc(-n2cccn2)c1 [Example 6, 5-(3-(1H-pyrazol-1-yl)phenylamino)-3-((1R,2S)-2-aminocyclohexylamino)-1,2,4-triazine-6-carboxamide]
0.001 to 0.01	NC(=O)c1nnc(N[C@H](CC(F)F)C(N)=O)nc1Nc1ccc2ncccc2c1 [Example 150, (R)-3-((1-amino-4,4-difluoro-1-oxobutan-2-yl)amino)-5-(quinolin-6-ylamino)-1,2,4-triazine-6-carboxamide]
0.001 to 0.01	Cc1cc(Nc2nc(N[C@@H]3CCCC[C@@H]3N)nnc2C(N)=O)ccc1F [Example 26, 3-(((1R,2S)-2-aminocyclohexyl)amino)-5-((4-fluoro-3-methylphenyl)amino)-1,2,4-triazine-6-carboxamide]
0.001 to 0.01	CN(C)c1ccc(Nc2nc(N[C@@H]3CCCC[C@@H]3N)nnc2C(N)=O)cc1Cl [Example 175, 3-(((1R,2S)-2-aminocyclohexyl)amino)-5-((3-chloro-4-(dimethylamino)phenyl)amino)-1,2,4-triazine-6-carboxamide]
0.001 to 0.01	NC(=O)c1nnc(N[C@@H]2CCCC[C@@H]2N)nc1Nc1ccc(F)c(Cl)c1 [Example 24, 3-(((1R,2S)-2-aminocyclohexyl)amino)-5-((3-chloro-4-fluorophenyl)amino)-1,2,4-triazine-6-carboxamide]
0.001 to 0.01	NC(=O)c1nnc(N[C@H](CC(F)F)C(N)=O)nc1Nc1cc(Cl)c2ncccc2c1 [Example 185, (R)-3-((1-amino-4,4-difluoro-1-oxobutan-2-yl)amino)-5-((8-chloroquinolin-6-yl)amino)-1,2,4-triazine-6-carboxamide]
0.001 to 0.01	NC(=O)c1nnc(N[C@@H]2CCCC[C@@H]2N)nc1Nc1cccc(-c2ncccn2)c1 [Example 1, 3-((1R,2S)-2-aminocyclohexylamino)-5-(3-(pyrimidin-2-yl)phenylamino)-1,2,4-triazine-6-carboxamide]
0.001 to 0.01	NC(=O)c1nnc(N[C@@H]2CCCC[C@@H]2N)nc1Nc1ccc(-c2ncco2)cc1 [Example 131, 3-(((1R,2S)-2-aminocyclohexyl)amino)-5-((4-(oxazol-2-yl)phenyl)amino)-1,2,4-triazine-6-carboxamide]
< 0.001	Cn1ncc2ccc(Nc3nc(N[C@H](CC(F)F)C(N)=O)nnc3C(N)=O)cc21 [Example 184, (R)-3-((1-amino-4,4-difluoro-1-oxobutan-2-yl)amino)-5-((1-methyl-1H-indazol-6-yl)amino)-1,2,4-triazine-6-carboxamide]
0.001 to 0.01	NC(=O)c1nnc(N[C@@H]2CCCC[C@@H]2N)nc1Nc1ccn2ccnc2c1 [Example 198, 3-(((1R,2S)-2-aminocyclohexyl)amino)-5-(imidazo[1,2-a]pyridin-7-ylamino)-1,2,4-triazine-6-carboxamide]
